Measurements from US9504725B2, “Compositions and functional foods for treating and preventing obesity using polygonum cuspidatum butanol fraction and ethyl acetate fraction” (KOREA INSTITUTE OF ORIENTAL MEDICINE, priority 2009, dated 2016).
One block for each compound: values may come before it.

Assays:
[1] = target: T1, porcine pancreatic lipase (Sus scrofa, UniProt P00591); assay: Inhibition of porcine pancreatic lipase activity (p-NPB hydrolysis); assay type: biochemical
T1 construct: purchased Sigma, St. Louis, Mo., USA
T1 sequence (P00591 1-450): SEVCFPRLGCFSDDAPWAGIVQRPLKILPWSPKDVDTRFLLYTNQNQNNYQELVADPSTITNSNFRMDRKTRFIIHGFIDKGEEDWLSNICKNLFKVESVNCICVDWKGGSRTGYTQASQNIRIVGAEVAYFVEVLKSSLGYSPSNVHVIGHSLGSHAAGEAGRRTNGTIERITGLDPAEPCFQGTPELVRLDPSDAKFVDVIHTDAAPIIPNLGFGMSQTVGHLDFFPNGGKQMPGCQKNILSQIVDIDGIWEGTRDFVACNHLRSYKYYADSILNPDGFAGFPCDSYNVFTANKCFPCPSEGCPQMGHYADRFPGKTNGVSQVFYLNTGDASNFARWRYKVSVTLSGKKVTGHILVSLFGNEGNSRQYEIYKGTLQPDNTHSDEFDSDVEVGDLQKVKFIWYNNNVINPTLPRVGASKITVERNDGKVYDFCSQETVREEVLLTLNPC

[2] = Inhibitory effect on short term absorption of lipid emulsions in animals (triglyceride after oral lipid emulsion); assay type: in vivo, male wistar rats
[3] = Obesity-preventive effect in high-fat diet-fed mice (body weight, fats, adipocyte size, serum lipids, fatty liver, insulin); assay type: in vivo, male C57BL/6 mice
[4] = high-fat feed mixed with drug (POCU 1%, Xenical 0.1%), 10 weeks

inhibition at 50 µg/mL ([1]; 50 μg/mL, read-out: Inhibitory effect on pancreatic lipase activity (%)): 32.4 ± 3% | inhibition at 100 µg/mL ([1]; 100 μg/mL, read-out: Inhibitory effect on pancreatic lipase activity (%)): 47.2 ± 1.6% | IC50 ([1]; porcine pancreatic lipase, p-NPB substrate): 543 µM
SMILES: Oc1ccc(/C=C/c2cc(O)cc(O)c2)cc1 [Resveratrol, trans-resveratrol]
Concentration of serum triglyceride ([2]; 10 mg/kg oral with lipid emulsion, 0 h (before administration)): 147.0 ± 4.2 mg/dL | Concentration of serum triglyceride ([2]; 10 mg/kg oral with lipid emulsion, 1 h): 212.5 ± 14.0 mg/dL | Concentration of serum triglyceride ([2]; 10 mg/kg oral with lipid emulsion, 2 h): 219.3 ± 77.3 mg/dL | Concentration of serum triglyceride ([2]; 10 mg/kg oral with lipid emulsion, 3 h): 195.5 ± 25.9 mg/dL | Concentration of serum triglyceride ([2]; 10 mg/kg oral with lipid emulsion, 4 h): 193.2 ± 12.1 mg/dL | Concentration of serum triglyceride ([2]; 50 mg/kg oral with lipid emulsion, 0 h (before administration)): 146.1 ± 1.4 mg/dL | Concentration of serum triglyceride ([2]; 50 mg/kg oral with lipid emulsion, 1 h): 208.3 ± 31.0 mg/dL | Concentration of serum triglyceride ([2]; 50 mg/kg oral with lipid emulsion, 2 h): 228.0 ± 58.4 mg/dL | Concentration of serum triglyceride ([2]; 50 mg/kg oral with lipid emulsion, 3 h): 198.8 ± 62.3 mg/dL | Concentration of serum triglyceride ([2]; 50 mg/kg oral with lipid emulsion, 4 h): 183.7 ± 50.3 mg/dL | Concentration of serum triglyceride ([2]; 250 mg/kg oral with lipid emulsion, 2 h): 228.5 ± 8.4 mg/dL

SMILES: CCCCCCCCCCC[C@@H](C[C@@H]1OC(=O)[C@H]1CCCCCC)OC(=O)[C@H](CC(C)C)NC=O [Xenical, tetrahydrolipstatin (orlistat)]
adipocyte size ([3]; H&E stained adipose tissue, high-fat diet group 125 μm): 75 μm | gonadal fat weight [3, 4]: 0.17 g | perirenal fat weight [3, 4]: 0.04 g | subcutaneous fat weight [3, 4]: 0.14 g | extent of body weight gain ([3]; high-fat feed mixed with drug, 10 weeks, high-fat diet group 10.9 g): 6.1 g | Concentration of serum triglyceride ([2]; 200 mg/kg oral with lipid emulsion, 0 h (before administration)): 159.6 ± 19.0 mg/dL | Concentration of serum triglyceride ([2]; 200 mg/kg oral with lipid emulsion, 1 h): 133.7 ± 11.3 mg/dL | Concentration of serum triglyceride ([2]; 200 mg/kg oral with lipid emulsion, 2 h): 124.4 ± 18.0 mg/dL | Concentration of serum triglyceride ([2]; 200 mg/kg oral with lipid emulsion, 3 h): 118.1 ± 24.5 mg/dL | Concentration of serum triglyceride ([2]; 200 mg/kg oral with lipid emulsion, 4 h): 120.9 ± 12.5 mg/dL
